From patent US12419853B2, “Nanoparticle pharmaceutical delivery system” (ADEIRA PHARMA, LLC, priority 2019, dated 2025)

Experiments:
[1] = test system: OVCAR3 human ovarian carcinoma xenograft; assay: OVCAR3 xenograft efficacy; assay type: in vivo; details: CB.17 SCID mice, 4 mg/kg weekly, four doses
Method: In this three-arm study, a vehicle control was included, which consisted of the nanoparticle emulsion with no cisplatin. A positive control arm included a conventional formulation of free cisplatin dosed at 4 mg/kg. The test arm included the nanoparticle emulsion at a dose of 4 mg/kg.
60 female CB.17 SCID mice, aged 8 to 12 weeks, were implanted with 1 mm^3 OVCAR3 tumor fragments in the flank. When the tumors had grown to approximately 100-150 mm^3, pairs were matched by tumor size and treatment began. Dosing was carried out weekly on all three arms, for a total of four doses. Body weight and tumor size for each of the mice was taken every other day. No excess toxicity was noted, as evidenced by body weight and observed behavior of the mice. […] The negative control (labeled ‘vehicle’ in FIG. 6) served as a reference for tumor growth in the absence of cisplatin.

[2] = Source text: In a fifth alternative example, formulation of a nanoparticle emulsion was attempted as described in example 1, except that no triacetin was used, just safflower oil as the lipid component. […] The maximum solubility was approximately 1000× less than in triacetin.

maximum solubility in safflower oil, fold less than in triacetin [2] | SMILES | effect on tumor growth [1]
 | N.N.[Cl][Pt][Cl] [free cisplatin, cisplatin] | significant reduction in tumor growth
approximately 1000 × | CC(=O)O[C@H]1C(=O)[C@@]2(C)[C@H]([C@H](OC(=O)c3ccccc3)[C@]3(O)C[C@H](OC(=O)[C@H](O)[C@@H](NC(=O)c4ccccc4)c4ccccc4)C(C)=C1C3(C)C)[C@]1(OC(C)=O)CO[C@@H]1C[C@@H]2O [paclitaxel] | 
